The target of assay [1] is T1, Piezo1Rs (Homo sapiens, UniProt Q92508).
T1 construct: SV-40 immortalized human microglia cell line which endogenously express Piezo-1 and Piezo2Rs was used; endogenous in cells; host or cells: SV-40 immortalized human microglia cell line
Description: Calcium imaging of Yoda1-evoked Ca2+ transients in SV-40 immortalized human microglia cell line. In kind it is cell-based. The following applies: SV-40 cells, n=13, p=0.00009. As to the method: To study the calcium influx evoked by native Piezo1 Rs expressed in microglia cells the present inventors used short Yoda1 applications (2 s, 50 μM if not otherwise specified). For this purpose, human IPSO derived microglia cells and SV-40 (immortalized human microglia) cells were seeded on 7 mm cover slips 1 day prior to the imaging experiment. Cells were loaded with the calcium-sensitive fluorescent dye Fluo-4AM (5 μM) for 30 min at 37° C. Followed by wash-incubation for 15 min in Ab 20 μM, 50 μM GdCI and basic solution (BS) as a control at 37° C. The basic solution containing the following (BS, in mM): 2.5 KCl, 152 NaCl, 10 glucose, 2 CaCl2, and 10 HEPES at pH 7.4. Fluorescence was visualized using monochromatic light source (TILL Photonics GmbH) using Ex/Im 494/[…] and a CCD camera (SensiCam). […] To quantify the difference in the amplitude of calcium transients, the ratio values were normalized by subtracting a baseline and further divided by the amplitude of the calcium transient to the 2 sec application of the ionomycin. Data were pre-analyzed offline using the FEI offline analysis (TILL Photonics), and further analysis was automatized using MatLab. Quantitative data were expressed as means±SEM unless otherwise stated. […] Significance assessed with the ANOVA test or Mann-Whitney t test for non-parametric data. […]

The target of assay [2] is T2, native Piezo1Rs (Homo sapiens, UniProt Q92508).
T2 construct: endogenous in cells; host or cells: human iPSC-derived microglia
T2 sequence (Q92508 whole entry): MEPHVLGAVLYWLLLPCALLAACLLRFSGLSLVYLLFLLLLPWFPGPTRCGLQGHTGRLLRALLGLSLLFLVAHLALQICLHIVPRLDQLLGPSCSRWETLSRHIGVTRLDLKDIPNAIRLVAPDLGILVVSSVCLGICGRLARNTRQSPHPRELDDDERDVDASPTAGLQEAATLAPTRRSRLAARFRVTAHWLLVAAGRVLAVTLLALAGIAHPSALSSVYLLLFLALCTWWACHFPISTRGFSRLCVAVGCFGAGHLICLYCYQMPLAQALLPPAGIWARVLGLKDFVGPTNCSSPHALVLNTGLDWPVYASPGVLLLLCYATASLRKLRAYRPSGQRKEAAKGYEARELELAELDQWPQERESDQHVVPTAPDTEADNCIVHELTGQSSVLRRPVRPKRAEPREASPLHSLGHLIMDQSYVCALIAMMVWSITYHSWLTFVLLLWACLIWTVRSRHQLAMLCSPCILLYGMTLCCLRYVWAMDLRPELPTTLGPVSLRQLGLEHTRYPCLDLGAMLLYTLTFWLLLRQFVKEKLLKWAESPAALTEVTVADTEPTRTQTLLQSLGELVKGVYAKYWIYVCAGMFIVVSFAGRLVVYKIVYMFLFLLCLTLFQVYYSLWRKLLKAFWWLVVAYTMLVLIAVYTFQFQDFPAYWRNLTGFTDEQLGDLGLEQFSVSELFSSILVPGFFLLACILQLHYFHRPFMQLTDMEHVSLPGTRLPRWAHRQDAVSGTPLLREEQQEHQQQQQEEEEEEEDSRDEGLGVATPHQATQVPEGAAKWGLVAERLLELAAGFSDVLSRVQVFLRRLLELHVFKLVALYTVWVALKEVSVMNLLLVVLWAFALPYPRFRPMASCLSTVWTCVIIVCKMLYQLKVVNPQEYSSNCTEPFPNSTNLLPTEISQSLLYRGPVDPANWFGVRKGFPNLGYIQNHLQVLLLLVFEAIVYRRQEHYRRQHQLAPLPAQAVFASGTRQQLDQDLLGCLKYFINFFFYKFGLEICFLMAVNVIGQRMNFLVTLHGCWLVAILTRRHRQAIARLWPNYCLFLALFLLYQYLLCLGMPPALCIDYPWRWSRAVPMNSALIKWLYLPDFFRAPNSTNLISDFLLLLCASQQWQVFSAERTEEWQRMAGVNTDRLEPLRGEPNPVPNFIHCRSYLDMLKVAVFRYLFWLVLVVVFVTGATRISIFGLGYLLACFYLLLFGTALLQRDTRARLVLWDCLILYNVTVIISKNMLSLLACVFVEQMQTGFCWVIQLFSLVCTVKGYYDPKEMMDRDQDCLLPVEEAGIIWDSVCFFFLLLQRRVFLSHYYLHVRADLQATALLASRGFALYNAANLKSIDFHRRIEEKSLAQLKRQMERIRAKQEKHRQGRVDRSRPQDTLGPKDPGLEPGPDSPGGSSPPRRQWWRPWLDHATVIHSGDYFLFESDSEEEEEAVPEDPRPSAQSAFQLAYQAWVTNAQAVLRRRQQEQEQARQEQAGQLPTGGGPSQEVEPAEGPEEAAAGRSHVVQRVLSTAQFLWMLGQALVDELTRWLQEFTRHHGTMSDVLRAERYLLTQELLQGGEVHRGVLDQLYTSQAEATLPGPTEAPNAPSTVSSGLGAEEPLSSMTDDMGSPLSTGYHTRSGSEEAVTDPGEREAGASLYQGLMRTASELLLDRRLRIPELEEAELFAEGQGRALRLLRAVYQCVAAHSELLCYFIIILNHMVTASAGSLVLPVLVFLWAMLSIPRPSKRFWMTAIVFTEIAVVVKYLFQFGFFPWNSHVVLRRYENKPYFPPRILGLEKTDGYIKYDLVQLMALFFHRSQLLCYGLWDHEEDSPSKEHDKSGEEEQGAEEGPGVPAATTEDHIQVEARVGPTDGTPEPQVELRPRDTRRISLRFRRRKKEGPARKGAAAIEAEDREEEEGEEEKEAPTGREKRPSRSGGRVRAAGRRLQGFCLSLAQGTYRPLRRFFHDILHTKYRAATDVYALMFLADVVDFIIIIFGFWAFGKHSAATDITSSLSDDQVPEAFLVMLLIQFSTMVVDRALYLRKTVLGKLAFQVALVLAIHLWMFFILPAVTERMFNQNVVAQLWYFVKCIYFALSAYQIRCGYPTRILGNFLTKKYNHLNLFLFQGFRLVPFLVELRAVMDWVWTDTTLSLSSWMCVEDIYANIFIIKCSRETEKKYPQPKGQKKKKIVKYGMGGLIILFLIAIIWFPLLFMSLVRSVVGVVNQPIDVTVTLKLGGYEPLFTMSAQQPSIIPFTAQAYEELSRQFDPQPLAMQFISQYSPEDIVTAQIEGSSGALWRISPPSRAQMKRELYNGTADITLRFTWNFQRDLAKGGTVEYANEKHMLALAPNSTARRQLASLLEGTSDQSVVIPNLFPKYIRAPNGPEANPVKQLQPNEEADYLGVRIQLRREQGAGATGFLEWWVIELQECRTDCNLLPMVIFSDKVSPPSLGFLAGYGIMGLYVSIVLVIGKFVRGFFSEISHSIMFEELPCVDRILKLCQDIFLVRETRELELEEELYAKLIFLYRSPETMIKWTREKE
Description: Calcium imaging of Yoda1-evoked Ca2+ influx in hiPSC-derived microglia. The format is cell-based. The conditions noted are these: 50 μM GdCI in BS pre-incubation. As to the method:
To study the calcium influx evoked by native Piezo1 Rs expressed in microglia cells the present inventors used short Yoda1 applications (2 s, 50 μM if not otherwise specified). For this purpose, human IPSO derived microglia cells and SV-40 (immortalized human microglia) cells were seeded on 7 mm cover slips 1 day prior to the imaging experiment. Cells were loaded with the calcium-sensitive fluorescent dye Fluo-4AM (5 μM) for 30 min at 37° C. Followed by wash-incubation for 15 min in Ab 20 μM, 50 μM GdCI and basic solution (BS) as a control at 37° C. The basic solution containing the following (BS, in mM): 2.5 KCl, 152 NaCl, 10 glucose, 2 CaCl2, and 10 HEPES at pH 7.4. Fluorescence was visualized using monochromatic light source (TILL Photonics GmbH) using Ex/Im 494/[…] and a CCD camera (SensiCam). Chemicals were applied using a fast perfusion system (RSC-200, BioLogic Science). To quantify the difference in the amplitude of calcium transients, the ratio values were normalized by subtracting a baseline and further divided by the amplitude of the calcium transient to the 2 sec application of the ionomycin. Data were pre-analyzed offline using the FEI offline analysis (TILL Photonics), and further analysis was automatized using MatLab. Quantitative data were expressed as means±SEM unless otherwise stated. Number of experiments is indicated by n. Significance assessed with the ANOVA test or Mann-Whitney t test for non-parametric data. Statistically significant differences were set at*p<0.05 and **p<0.01.
Differentiation of microglia. Differentiation of microglia was carried out as previously described with minor modifications (Abud et al., 2017). Shortly, on DO, iPSCs were dissociated to single cells with 0.5 mM EDTA or Accutase and were replated at a density of 6-,000-16,000 cells/cm2 on Matrigel in E8, 0.5% penicillin/streptomycin (P/S, 50 IU/50 […]), 5 ng/ml BMP4, 25 ng/ml activin a (both from Peprotech or Miltenyi Biotec), 1 μM CHIR 99021 (Axon or Stem Cell Technologies) and 10 μM Y-27632 to induce mesodermal differentiation. […]

Experimental findings from patent publication US20220265646A1, “PIEZO AGONISTS FOR PREVENTING OR REVERTING ABNORMAL AMYLOID DEPOSITION” (ITÄ-SUOMEN YLIOPISTO, priority 2019, published 2022) are described below.

Each structure is given as a SMILES string.

T1 sequence (Q92508 whole entry): as above

Turning to `[Cl][Gd]([Cl])[Cl]` [GdCI, Gadolinium chloride], in assay [1], the “Yoda1 activated Ca2+ transients after pre-incubation of GdCI” value was 0.17±0.04. Further, the “Yoda1-activated Ca2+ transients after pre-incubation with GdCI” value in assay [2] (50 μM Yoda1 2 s, n=5, p=0.0073) turned out to be 0.10±0.1. Moreover, in assay [2] (hiPSC microglia), the “inhibition of Yoda1-activated Ca2+ transients” value was 90%.
